{"source": "PubChem BioAssay AID2060508", "about": "(Molecular Pharmacology Branch, DTP, NCI, 2025)", "tested_on": "454973-116-R2-J3-PDC spheroids, viability, % test/control", "assay": "Anticancer human tumor 454973-116-R2-J3-PDC patient-derived pancreatic carcinoma cell line growth inhibition [GQUAD]", "conditions": "spheroids with HUVEC and MSC; for IC50: curve of first compound; for viability, T/C: stronger effect = lower value", "source_text": "DNA G-quadruplex Stabilizer Agents in Combinations in Complex Spheroids\nA high-throughput screen of multi-cell type tumor spheroids was designed to identify active combinations of DNA G-quadruplex stabilizer agents and targeted small molecules. Complex spheroids include a stromal component modeled by human endothelial cells (HUVEC) and fibroblasts modeled by human mesenchymal stem cells (MSCs). The concentration ranges selected for each drug and investigational agent were based upon clinically achievable concentrations if the clinical Cmax of the agent was known.\nCompounds. The drugs and investigational agents: pidnarulex (CX-5461; NSC782164), APTO-253 (NSC789042), BRACO-19 (NSC847499), peposertib (NSC802822), ceralasertib (NSC780249), elimusertib (NSC800525), camonsertib (NSC841442), AZD-1390 (NSC803789), olaparib (NSC753686), talazoparib (NSC767125), ART-558 (NSC835418), sotorasib (NSC818433), MRTX-1133 (NSC836407), SN-38 (NSC673596), topotecan (NSC609699), etoposide (NSC141540), doxorubicin (NSC123127), gemcitabine (NSC613327), 5-fluorouracil (NSC19893), paclitaxel (NSC125973), vemurafenib (NSC761431), panobinostat (NSC761190), R-306465 (JNJ-16241199; NSC773264), adavosertib (NSC754352), TP-3654 (NSC805149), carboplatin (NSC241240), KSQ-4279 (NSC840948), and staurosporine (NSC755774) were obtained from the National Cancer Institute (NCI) Developmental Therapeutics Program Chemical Repository (34). The FDA-approved anticancer drug set is available from the NCI Developmental Therapeutics Program. […] The stock solutions were prepared in dimethyl sulfoxide (DMSO, Sigma-Aldrich, St. Louis, MO, cat. D2650) at 800-fold the tested concentration and stored at -70 degrees C prior to their use. All drugs and investigational agents were tested over a range starting from a high concentration at or near the clinical Cmax and decreasing in half-log increments. If the clinical Cmax for an agent had not been determined, the highest concentration tested was 10 microM.\n2.3 Cell Culture. All cells were maintained in an incubator at 37 degrees C and 5% CO2 with 95% humidity. The PDC lines were cultured according to standard operating procedures established by the NCI PDMR. All PDCs were thawed and cultured in Matrigel-coated flasks prepared with a working solution of 1X Ham's F-12 nutrient mix, without supplementation (Invitrogen, cat. 11765054), 100 U/mL penicillin-streptomycin (Invitrogen, cat. 15140122), and 2.5% Matrigel (Corning Inc., cat. 354248) for the first three passages. The 857933-349-R-J2-PDC line was cultured in 6C/Colon 1B media, which includes advanced DMEM/F-12 (Thermo Fisher Scientific, cat. 12634028), 10 mM HEPES (Thermo Fisher Scientific, cat. 15630080), 1X GlutaMAX supplement (Thermo Fisher Scientific, cat. 35050061), 0.1 mg/mL primocin (InvivoGen, cat. ant-pm-2), 10% defined fetal bovine serum, heat inactivated (HyClone Laboratories Inc., cat. SH30070.03HI), 50% L-WRN conditioned media (ATCC, cat. CRL-3276), 1.25 mM N-Acetyl-L-cysteine (Sigma-Aldrich, cat. A9165), 10 mM nicotinamide (Sigma-Aldrich, cat. N0636), 1X B-27 supplement (Thermo Fisher Scientific, cat. 17504044), 1X N-2 supplement (Thermo Fisher Scientific, cat. 17502048), 10 microM Y-27632 dihydrochloride (Tocris Bioscience, cat. 1254), and 50 ng/mL human EGF recombinant protein (Thermo Fisher Scientific, cat. PHG0311). The 485176-168-R4-J1-PDC line was cultured in Panc media, which includes all 6C/Colon 1B media components plus 100 ng/mL human FGF-10 (Thermo Fisher Scientific, cat. 100-26), 500 nM SB-431542 (Selleckchem, cat. S1067), and gastrin (Tocris, cat. 3006).\n[…]", "data": [{"compound": "CC(C)n1c(=O)n(C)c2cnc3cc(F)c(-c4ccc(OCCCN5CCCCC5)nc4)cc3c21", "note": "+ CN(C)c1ccc(Nc2c3ccc(NC(=O)CCN4CCCC4)cc3nc3cc(NC(=O)CCN4CCCC4)ccc23)cc1;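 further: spheroids exposed to compounds for seven days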", "values": [{"measurement": "IC50", "setting": "second compound 0.0316 µM", "value": "> 10", "unit": "µM"}, {"measurement": "IC50", "setting": "second compound 0.1 µM", "value": "> 10", "unit": "µM"}, {"measurement": "IC50", "setting": "second compound 0.316 µM", "value": "> 10", "unit": "µM"}, {"measurement": "IC50", "setting": "second compound 1 µM", "value": "> 10", "unit": "µM"}, {"measurement": "IC50", "setting": "second compound 3.16 µM", "value": "> 10", "unit": "µM"}, {"measurement": "IC50", "setting": "second compound 10 µM", "value": 4.49, "unit": "µM"}, {"measurement": "viability, T/C", "setting": "second compound 0.0316 µM, first compound 0.0316 µM", "value": 108, "unit": "%"}, {"measurement": "viability, T/C", "setting": "second compound 0.0316 µM, first compound 0.1 µM", "value": 94.8, "unit": "%"}, {"measurement": "viability, T/C", "setting": "second compound 0.0316 µM, first compound 0.316 µM", "value": 104, "unit": "%"}, {"measurement": "viability, T/C", "setting": "second compound 0.0316 µM, first compound 1 µM", "value": 99.2, "unit": "%"}, {"measurement": "viability, T/C", "setting": "second compound 0.0316 µM, first compound 3.16 µM", "value": 78.7, "unit": "%"}, {"measurement": "viability, T/C", "setting": "second compound 0.0316 µM, first compound 10 µM", "value": 73.5, "unit": "%"}, {"measurement": "viability, T/C", "setting": "second compound 0.1 µM, first compound 0.0316 µM", "value": 103, "unit": "%"}, {"measurement": "viability, T/C", "setting": "second compound 0.1 µM, first compound 0.1 µM", "value": 118, "unit": "%"}, {"measurement": "viability, T/C", "setting": "second compound 0.1 µM, first compound 0.316 µM", "value": 95.2, "unit": "%"}, {"measurement": "viability, T/C", "setting": "second compound 0.1 µM, first compound 1 µM", "value": 97.1, "unit": "%"}, {"measurement": "viability, T/C", "setting": "second compound 0.1 µM, first compound 3.16 µM", "value": 68.7, "unit": "%"}, {"measurement": "viability, T/C", "setting": "second compound 0.1 µM, first compound 10 µM", "value": 76.1, "unit": "%"}, {"measurement": "viability, T/C", "setting": "second compound 0.316 µM, first compound 0.0316 µM", "value": 103, "unit": "%"}, {"measurement": "viability, T/C", "setting": "second compound 0.316 µM, first compound 0.1 µM", "value": 103, "unit": "%"}, {"measurement": "viability, T/C", "setting": "second compound 0.316 µM, first compound 0.316 µM", "value": 99.5, "unit": "%"}, {"measurement": "viability, T/C", "setting": "second compound 0.316 µM, first compound 1 µM", "value": 89.1, "unit": "%"}, {"measurement": "viability, T/C", "setting": "second compound 0.316 µM, first compound 3.16 µM", "value": 75.1, "unit": "%"}, {"measurement": "viability, T/C", "setting": "second compound 0.316 µM, first compound 10 µM", "value": 73.8, "unit": "%"}, {"measurement": "viability, T/C", "setting": "second compound 1 µM, first compound 0.0316 µM", "value": 99.6, "unit": "%"}, {"measurement": "viability, T/C", "setting": "second compound 1 µM, first compound 0.1 µM", "value": 99.3, "unit": "%"}, {"measurement": "viability, T/C", "setting": "second compound 1 µM, first compound 0.316 µM", "value": 91.7, "unit": "%"}, {"measurement": "viability, T/C", "setting": "second compound 1 µM, first compound 1 µM", "value": 66.3, "unit": "%"}, {"measurement": "viability, T/C", "setting": "second compound 1 µM, first compound 3.16 µM", "value": 81.8, "unit": "%"}, {"measurement": "viability, T/C", "setting": "second compound 1 µM, first compound 10 µM", "value": 65.3, "unit": "%"}, {"measurement": "viability, T/C", "setting": "second compound 3.16 µM, first compound 0.0316 µM", "value": 85.7, "unit": "%"}, {"measurement": "viability, T/C", "setting": "second compound 3.16 µM, first compound 0.1 µM", "value": 91.7, "unit": "%"}, {"measurement": "viability, T/C", "setting": "second compound 3.16 µM, first compound 0.316 µM", "value": 95.9, "unit": "%"}, {"measurement": "viability, T/C", "setting": "second compound 3.16 µM, first compound 1 µM", "value": 65.8, "unit": "%"}, {"measurement": "viability, T/C", "setting": "second compound 3.16 µM, first compound 3.16 µM", "value": 72.5, "unit": "%"}, {"measurement": "viability, T/C", "setting": "second compound 3.16 µM, first compound 10 µM", "value": 63.7, "unit": "%"}, {"measurement": "viability, T/C", "setting": "second compound 10 µM, first compound 0.0316 µM", "value": 76.9, "unit": "%"}, {"measurement": "viability, T/C", "setting": "second compound 10 µM, first compound 0.1 µM", "value": 74.6, "unit": "%"}, {"measurement": "viability, T/C", "setting": "second compound 10 µM, first compound 0.316 µM", "value": 69, "unit": "%"}, {"measurement": "viability, T/C", "setting": "second compound 10 µM, first compound 1 µM", "value": 61.4, "unit": "%"}, {"measurement": "viability, T/C", "setting": "second compound 10 µM, first compound 3.16 µM", "value": 61.8, "unit": "%"}, {"measurement": "viability, T/C", "setting": "second compound 10 µM, first compound 10 µM", "value": 34.1, "unit": "%"}]}]}
